Measured values as given in EPA's ToxValDB 9.5.

Columns and labels:
Mus musculus = conditions: oral, gavage
Rattus norvegicus = conditions: oral
[1] = short-term, duration: 28 days, F, B6C3F1, peritoneal cavity: IL-6 levels (+LPS in vivo) + peritoneal cavity: TNF-alpha levels (+LPS in vitro) + spleen: spleen: relative weight
[2] = short-term, duration: 28 days, F, B6C3F1, serum lysozyme activity + spleen: splenic CD4-/CD8+ + spleen: splenic CD4+/CD8-
[3] = short-term, duration: 28 days, F, B6C3F1, spleen (B cells): IL-6 levels (+LPS)
[4] = short-term, duration: 28 days, F, B6C3F1, thymus: thymic CD4+/CD8+
[5] = short-term, duration: 28 days, M, B6C3F1, IgM antibody-producing cells (SRBC)
[6] = short-term, duration: 28 days, M, B6C3F1, spleen: Splenic NK cell activity
[7] = short-term, duration: 28 days, M, B6C3F1, spleen: splenic CD4-/CD8- + spleen: splenic CD4-/CD8+ + spleen: splenic CD4+/CD8- + spleen: splenic CD4+/CD8+
[8] = subchronic, duration: 30 days, M, C57BL/6, spleen: spleen: relative weight
[9] = subchronic, duration: 60 days, M, C57BL/6, % of sub G1 population (splenocytes) + spleen: apoptotic cells (splenocytes) + spleen: viability in murine splenocytes + thymus: apoptotic …
[10] = subchronic, duration: 60 days, M, C57BL/6, % of sub G1 population (thymocytes) + body weight change + spleen: necrotic cells (splenocytes) + spleen: spleen cellularity + spleen: …
[11] = subchronic, duration: 60 days, M, C57BL/6, IgM antibody titer (SRBC) + spleen: IL-4 levels
[12] = subchronic, duration: 60 days, M, C57BL/6, blood serum: IL-1 beta (+LPS in vivo) + blood serum: IL-1 beta levels + blood serum: IL-6 levels + peritoneal cavity: IL-1 beta levels (+LPS…
[13] = subchronic, duration: 60 days, M, C57BL/6, blood serum: IL-6 levels (+LPS in vivo) + blood serum: TNF-alpha levels (+LPS in vivo) + peritoneal cavity: IL-6 levels (+LPS in vivo) + …
[14] = subchronic, duration: 60 days, M, C57BL/6, body weight change + food intake from day 60 to 61 + IgE antibody titer (SRBC) + IgG antibody titer (SRBC) + IgG1 antibody titer (SRBC) + …
[15] = subchronic, duration: 60 days, M, C57BL/6, body weight change + peritoneal cavity: IL-6 levels + peritoneal cavity: IL-6 levels (+LPS in vitro) + peritoneal cavity: TNF-alpha levels…
[16] = subchronic, duration: 60 days, M, C57BL/6, liver: liver index
[17] = subchronic, duration: 60 days, M, C57BL/6, peritoneal cavity: IL-1 beta levels
[18] = subchronic, duration: 60 days, M, C57BL/6, serum corticosterone + spleen: lymphocyte proliferation (LPS) + spleen: spleen B220+ Cells + spleen: spleen CD8+ cells + thymus: thymus CD4…
[19] = subchronic, duration: 60 days, M, C57BL/6, spleen: lymphocyte proliferation (ConA) + thymus: thymus DN (CD4-/CD8-)
[20] = chronic, duration: 14 weeks, diet, M, Crl:CD(SD) BR, non-segmented neutrophils (N-SEG)
[21] = reproduction developmental, gavage, M/F, Sprague-Dawley, generation: F1, F1: IL-1beta mRNA level relative change: cortex (PND 0) + F1: IL-1beta mRNA level relative change: cortex (PND 21) + F1: IL-1beta mRNA level…
[22] = reproduction developmental, gavage, M/F, Sprague-Dawley, generation: F1, F1: TNFalpha mRNA level relative change: cortex (PND 0) + F1: TNFalpha mRNA level relative change: cortex (PND 21)
[23] = short-term, duration: 28 days, diet, F, Sprague-Dawley, spleen: spleen: relative weight + thymus: apoptotic cells in the thymic cortex + thymus: thymus: absolute weight + Total serum IgM level
[24] = short-term, duration: 28 days, diet, M, Sprague-Dawley, spleen: spleen: absolute weight + thymus: thymus: absolute weight
[25] = short-term, duration: 28 days, diet, M, Sprague-Dawley, thymus: apoptotic cells in the thymic cortex + thymus: apoptotic cells in the thymic medulla

For `O=S(=O)(O)C(F)(F)C(F)(F)C(F)(F)C(F)(F)C(F)(F)C(F)(F)C(F)(F)C(F)(F)F` [Perfluorooctanesulfonic acid], the “NOEL (TAD)” value (Mus musculus; short-term, duration: 28 days, F, B6C3F1, IgM antibody-producing cells (SRBC)) was 0.1 mg/kg-day, the LOEL (Mus musculus; short-term, duration: 28 days, F, B6C3F1, blood serum: IL-6 levels (+LPS in vivo) + blood serum: TNF-alpha levels (+LPS in vivo)) was 0.0331 mg/kg-day and the NOEL (Mus musculus; short-term, duration: 28 days, F, B6C3F1, eosinophils + lymphocytes + monocytes + neutrophils + platelet count + RBC + spleen: cells expressing CD19-/CD21+ + spleen: cells expressing…) was 0.166 mg/kg-day. For the same molecule, the NOEL (Mus musculus; short-term, duration: 28 days, F, B6C3F1, peritoneal cavity: IL-6 levels (+LPS in vitro) + peritoneal cavity: IL-6 levels (+LPS in vivo) + peritoneal cavity: TNF-alpha levels (+LPS …) was 9.93 mg/kg-day, the LOEL (Mus musculus; [1]) was 9.93 mg/kg-day and the NOEL (Mus musculus; [1]) was 0.0993 mg/kg-day. The “LOEL (TAD)” value (Mus musculus; [2]) was 0.1 mg/kg-day, the “NOEL (TAD)” value (Mus musculus; [2]) was 0.05 mg/kg-day and the LOEL (Mus musculus; [3]) was 0.0331 mg/kg-day. It also gave an NOEL (Mus musculus; [3]) of 0.00331 mg/kg-day, an LOEL (Mus musculus; short-term, duration: 28 days, F, B6C3F1, spleen (B cells): IL-6 levels (+anti-CD40)) of 0.00331 mg/kg-day and an NOEL (Mus musculus; short-term, duration: 28 days, F, B6C3F1, spleen: IL-6 secreting cells (# splenocytes)) of 0.0331 mg/kg-day. The LOEL (Mus musculus; short-term, duration: 28 days, F, B6C3F1, spleen: IL-6 secreting cells (# splenocytes) + spleen: IL-6 secreting cells (% splenocytes)) was 0.0993 mg/kg-day, the “NOEL (TAD)” value (Mus musculus; short-term, duration: 28 days, F, B6C3F1, spleen: lymphocyte proliferation (ConA) + spleen: lymphocyte proliferation (LPS) + spleen: spleen cellularity + spleen: spleen: relative …) was 5 mg/kg-day and the “LOEL (TAD)” value (Mus musculus; [4]) was 1 mg/kg-day. For the same molecule, the “NOEL (TAD)” value (Mus musculus; [4]) was 0.5 mg/kg-day, the “LOEL (TAD)” value (Mus musculus; [5]) was 0.05 mg/kg-day and the “NOEL (TAD)” value (Mus musculus; [5]) was 0.005 mg/kg-day. For the same molecule, the “NOEL (TAD)” value (Mus musculus; short-term, duration: 28 days, M, B6C3F1, serum lysozyme activity + spleen: lymphocyte proliferation (ConA) + spleen: lymphocyte proliferation (LPS) + spleen: spleen cellularity + …) was 5 mg/kg-day, the “LOEL (TAD)” value (Mus musculus; [6]) was 0.5 mg/kg-day and the “NOEL (TAD)” value (Mus musculus; [6]) was 0.1 mg/kg-day. For the same molecule, the “LOEL (TAD)” value (Mus musculus; [7]) was 0.1 mg/kg-day, the “NOEL (TAD)” value (Mus musculus; [7]) was 0.05 mg/kg-day and the “LOEL (TAD)” value (Mus musculus; [8]) was 300 mg/kg-day. For the same molecule, the “NOEL (TAD)” value (Mus musculus; [8]) was 150 mg/kg-day, the LOEL (Mus musculus; [9]) was 0.0833 mg/kg-day and the NOEL (Mus musculus; [9]) was 0.0167 mg/kg-day. It also gave an LOEL (Mus musculus; [10]) of 0.833 mg/kg-day, an NOEL (Mus musculus; [10]) of 0.0833 mg/kg-day and an NOEL (Mus musculus; subchronic, duration: 60 days, M, C57BL/6, DTH response + IgG2a antibody titer (SRBC) + kidney: kidney index + serum corticosterone) of 0.833 mg/kg-day. For the same molecule, the LOEL (Mus musculus; [11]) was 0.0833 mg/kg-day, the NOEL (Mus musculus; [11]) was 0.0167 mg/kg-day and the LOEL (Mus musculus; subchronic, duration: 60 days, M, C57BL/6, IgM antibody-secreting cells (SRBC) + Splenic NK cell activity) was 0.0833 mg/kg-day. It also gave an NOEL (Mus musculus; subchronic, duration: 60 days, M, C57BL/6, IgM antibody-secreting cells (SRBC) + spleen: spleen DP (CD4+/CD8+) + Splenic NK cell activity) of 0.00833 mg/kg-day, an LOEL (Mus musculus; [12]) of 0.833 mg/kg-day and an NOEL (Mus musculus; [12]) of 0.417 mg/kg-day. For the same molecule, the LOEL (Mus musculus; [13]) was 2.08 mg/kg-day, the NOEL (Mus musculus; [13]) was 0.833 mg/kg-day and the NOEL (Mus musculus; subchronic, duration: 60 days, M, C57BL/6, blood serum: TNF-alpha levels) was 2.08 mg/kg-day. The LOEL (Mus musculus; [14]) was 0.833 mg/kg-day, the NOEL (Mus musculus; [14]) was 0.417 mg/kg-day and the LOEL (Mus musculus; [15]) was 0.417 mg/kg-day. The NOEL (Mus musculus; [15]) was 0.0833 mg/kg-day, the LOEL (Mus musculus; [16]) was 0.417 mg/kg-day and the NOEL (Mus musculus; [16]) was 0.0833 mg/kg-day. It also gave an LOEL (Mus musculus; subchronic, duration: 60 days, M, C57BL/6, peritoneal cavity macrophages) of 0.0167 mg/kg-day, an NOEL (Mus musculus; subchronic, duration: 60 days, M, C57BL/6, peritoneal cavity macrophages + spleen: IL-1 beta mRNA) of 0.0083 mg/kg-day and an LOEL (Mus musculus; [17]) of 0.0833 mg/kg-day. The NOEL (Mus musculus; [17]) was 0.0167 mg/kg-day, the LOEL (Mus musculus; [18]) was 0.833 mg/kg-day and the NOEL (Mus musculus; [18]) was 0.417 mg/kg-day. For the same molecule, the LOEL (Mus musculus; [19]) was 2.08 mg/kg-day, the NOEL (Mus musculus; [19]) was 0.833 mg/kg-day and the LOEL (Mus musculus; subchronic, duration: 60 days, M, C57BL/6, spleen: spleen CD4+ cells + spleen: spleen cellularity + spleen: spleen DN (CD4-/CD8-) + spleen: spleen DP (CD4+/CD8+) + spleen: spleen: …) was 0.417 mg/kg-day. For the same molecule, the NOEL (Mus musculus; subchronic, duration: 60 days, M, C57BL/6, spleen: spleen CD4+ cells + spleen: spleen cellularity + spleen: spleen DN (CD4-/CD8-) + spleen: spleen: relative weight + thymus: thymus …) was 0.0833 mg/kg-day, the NOEL (Rattus norvegicus; chronic, duration: 14 weeks, diet, F, Crl:CD(SD) BR, non-segmented neutrophils (N-SEG)) was 1.56 mg/kg-day and the LOEL (Rattus norvegicus; [20]) was 1.33 mg/kg-day. It also gave an NOEL (Rattus norvegicus; [20]) of 0.34 mg/kg-day, an NOEL (Rattus norvegicus; chronic, duration: 104 weeks, diet, F, Crl:CD(SD) BR, blood: basophils + blood: eosinophils + blood: monocytes + blood: white blood cell count (WBC) + spleen: spleen: absolute weight (53 weeks…) of 1.56 mg/kg-day and an LOEL (Rattus norvegicus; chronic, duration: 104 weeks, diet, F, Crl:CD(SD) BR, blood: lymphocytes + blood: segmented neutrophils) of 0.039 mg/kg-day. For the same molecule, the NOEL (Rattus norvegicus; chronic, duration: 104 weeks, diet, F, Crl:CD(SD) BR, spleen: spleen: absolute weight (14 weeks)) was 0.39 mg/kg-day, the LOEL (Rattus norvegicus; chronic, duration: 104 weeks, diet, F, Crl:CD(SD) BR, spleen: spleen: absolute weight (14 weeks) + spleen: spleen: relative weight (53 weeks)) was 1.56 mg/kg-day and the NOEL (Rattus norvegicus; chronic, duration: 104 weeks, diet, M, Crl:CD(SD) BR, blood: basophils + blood: eosinophils + blood: monocytes + blood: white blood cell count (WBC) + spleen: spleen: absolute weight (14 weeks…) was 1.56 mg/kg-day. It also gave an LOEL (Rattus norvegicus; chronic, duration: 104 weeks, diet, M, Crl:CD(SD) BR, blood: lymphocytes + blood: segmented neutrophils) of 0.039 mg/kg-day, an LOEL (Rattus norvegicus; chronic, duration: 104 weeks, diet, M, Crl:CD(SD) BR, spleen: spleen: absolute weight (53 weeks) + spleen: spleen: relative weight (53 weeks)) of 1.56 mg/kg-day and an LOEL (Rattus norvegicus; [21]) of 0.6 mg/kg-day. For the same molecule, the NOEL (Rattus norvegicus; [21]) was 0.1 mg/kg-day, the LOEL (Rattus norvegicus; reproduction developmental, gavage, M/F, Sprague-Dawley, generation: F1, F1: IL-1beta mRNA level relative change: hippocampus (PND 0) + F1: TNFalpha mRNA level relative change: hippocampus (PND 0)) was 0.1 mg/kg-day and the LOEL (Rattus norvegicus; [22]) was 2 mg/kg-day. For the same molecule, the NOEL (Rattus norvegicus; [22]) was 0.6 mg/kg-day, the NOEL (Rattus norvegicus; short-term, duration: 28 days, diet, F, Sprague-Dawley, blood: blood CD3+ cells + blood: blood CD3+CD4+ cells + blood: blood CD3+CD8+ cells + blood: blood CD45RA+ cells + IgG antibody titer (KLH…) was 100 ppm and the LOEL (Rattus norvegicus; [23]) was 100 ppm. The NOEL (Rattus norvegicus; [23]) was 50 ppm, the LOEL (Rattus norvegicus; short-term, duration: 28 days, diet, M, Sprague-Dawley, Total serum IgG1 level) was 2 ppm and the NOEL (Rattus norvegicus; short-term, duration: 28 days, diet, M, Sprague-Dawley, blood CD3+ cells + blood: blood CD3+ cells + blood: blood CD3+CD4+ cells + blood: blood CD3+CD8+ cells + blood: blood CD45RA+ cells + IgG …) was 100 ppm. The LOEL (Rattus norvegicus; [24]) was 100 ppm, the NOEL (Rattus norvegicus; [24]) was 50 ppm and the LOEL (Rattus norvegicus; [25]) was 50 ppm. It also gave an NOEL (Rattus norvegicus; [25]) of 20 ppm.
